{"source": "patent US9532975B2", "about": "“Use of levo-oxiracetam and oxiracetam in preparation of medicines for preventing or treating coma” (CHONGQING RUNZE PHARMACEUTICAL COMPANY LIMITED., priority 2011, dated 2017)", "key": {"[1]": {"tested_on": "alcoholic coma mouse model", "assay": "Alcohol-induced coma in mice, sleep time (duration of loss of righting reflex)", "format": "in vivo", "details": "for wake-promoting effect on alcoholism-induced coma (in words): doses of Table 8", "protocol": "• 1. Drugs and reagents: L-Oxiracetam, D-Oxiracetam and racemic oxiracetam; naloxone, purchased from Chongqing Yaoyou Pharmaceutical Co., Ltd.; anhydrous ethanol, purchased from Shanghai Chemical Reagent Co., Ltd. Physiological saline is commercially available. Each solution was freshly prepared. • 2. Preparation of ethanol solution: anhydrous ethanol was diluted with saline to produce 30% ethanol solution, freshly prepared. • 3. Experimental animals: Male mice weighing 18-22 grams were provided by the special committee, Sichuan experimental animal farms (License: SCXK (Chuan) 2008-14). Animal experiments facilities continue to maintain barriers environmental standards. Control of key environmental indicators: the temperature of 20.0-25.0° C., relative humidity of 40-70%. 10-20 air changes/hour, lighting:dark=14 h:10 h. Animals were housed in standard boxes, each box had 5. (B) Experimental Methods\n1. Preparation of alcoholic coma mouse model: With reference to the literature (M. E L Yacoubi, C. Ledent, M. parmentier, et al Caffeine reduces hypnotic effects of alcohol through adenosine A2A receptor blockade [J] Neuropharmacology, 2003, 45(7):977-985) modeled the process of 30% ethanol solution intraperitoneally (0.2 ml/10 g).\n2. Method of determination of states of consciousness of mouse discriminating: According to the literature (Jeffrey R. Stephens, Rene H. Levy. Effects of valproate and citrulline on ammonium-Induced encephalopathy [J] Epilepsia, 1994,35 (1):164-171) performed the determination of states of consciousness: level 1, reduced activity in the cage; level 2, limb ataxia associated with reduced activity; level 3, scrolled when placed in the bottom of the back of the cage (righting reflex), but could not stand; level 4, back into the cage end position cannot be corrected, but the damage manifested as physical stimulation retraction; level 5, righting reflex (Loss of Righting Reflex, LORR) and the lack of response to noxious stimuli. Level 4, 5, considered animal in a coma.\nThe 150 animals were randomly divided into 10 groups: model control group (saline only); […]; dextral Oxiracetam up two groups, respectively: 90,180 mg/kg group; L oxiracetam set up three groups, namely: 30 mg/kg, 90 mg/kg and 180 mg/kg group; naloxone group, a dose of 1.5mg/kg. After each group were successfully prepared animal models, random tables grouped righting reflex one minute after tail vein injection. The mice were observed duration of righting reflex, that sleep time. Statistical results: the experimental data with x±sd, said comparison between the groups were analyzed using ANOVA and q test, test level: α=0.05."}, "[2]": {"details": "compared with the racemate; cited from earlier work"}, "[3]": {"tested_on": "traumatic brain coma in rats", "assay": "Traumatic brain coma in rats (Feeney method), coma level score", "format": "in vivo, SD rats", "details": "for Remark: animals that survived: 10 animals, 8 h observation, cell wraps: All / survived"}, "[4]": {"assay": "in vivo", "design": "species or system Beagle dogs", "details": "dog, 50 mg/kg", "protocol": "The study of comparing the pharmacokinetic of the racemic oxiracetam and L-oxiracetam determines the dose orally and intravenously to Beagle dogs for 50 mg/kg.\nTake six adult Beagle dogs, the numbers of female and male were equal, which were weighted 10.0±0.5 kg and randomly divided into three groups, and each group were two with same numbers of the male and female. Latin square crossover method was used (see Table 1). Beagle dogs were administered orally and intravenously at a dose of 50 mg/kg. L-oxiracetam samples with 99.3% (optically pure) of purity were used. Each route of administration was performed every week. Animals orally administered were fasted for 12 hours […] continued fasting three hours after administration. Blank blood was taken prior to administration. Blood sample were taken 1 mL from forelimbs vein into heparinized tubes in 0.083, 0.25, 0.5, 0.75, 1.0, 1.5, 2.0, 4.0, 6.0, 8.0, 12.0 and 24.0 hours after oral administration, or taken in 0.083, 0.25, 0.5, 0.75, 1.0, 1.5, 2.0, 4.0, 6.0, 8.0, 12.0 and 24.0 hours after intravenous administration, and centrifuged to obtain plasma. The concentrations of drugs in plasma were determined by LC-MS-MS method. The results in the table below 2-7."}, "[5]": {"tested_on": "ketamine-induced coma in mice", "assay": "Ketamine-induced coma in mice, duration of loss of righting reflex", "format": "in vivo, Kunming mice", "details": "for Time of Sleep (The duration of reflex action, min): ketamine 120 mg/kg i.p. induced coma", "protocol": "• 1.1 Experimental animal and grouped 150 Kunming mice, male, weight (25.3±1.9) g, provided by the special committee of Sichuan experimental animal farms. (License: SCXK (Chuan) 2008-14). Animal experiments facilities continue to maintain barriers environmental standards. Control of key environmental indicators: the temperature of 20.0-25.0° C., relative humidity of 40-70%. 10-20 air changes/hour, lighting:dark=14 h:10 h. Animals were housed in standard boxes, each box 5.\nMice after three consecutive supine standing for 5 s can not be restored righting reflex recovery after three consecutive sit-stand for the righting reflex. • 1.4 Statistical analysis of data with x±sd was expressed using statistical software SPSS 12.0 for data analysis. The groups were compared using ANOVA, test level: A=0 05. 2. Results"}, "[6]": {"details": "alcohol-induced coma, 30 mg/kg tail vein injection"}, "[7]": {"details": "alcohol-induced coma, 180 mg/kg tail vein injection"}, "[8]": {"details": "traumatic brain coma, 125 mg/kg, levels 1-6 (5 and 6 = coma)"}, "[9]": {"details": "both sexes, Beagle, iv, Drug concentrations in plasma"}, "[10]": {"details": "traumatic brain coma, 1 mg/kg, levels 1-6 (5 and 6 = coma)"}}, "data": [{"compound": "NC(=O)CN1C[C@@H](O)CC1=O", "note": "[L-oxiracetam, (S)-4-hydroxy-2-oxo-pyrrolidineacetamide]", "values": [{"measurement": "effect of awaking relative to racemic oxiracetam", "setting": "[1]; alcohol-induced coma", "value": "~2", "unit": "times"}, {"measurement": "Time of Sleep (The duration of reflex action, min)", "setting": "[1]; [6]", "value": "85.8 ± 10.6", "unit": "min"}, {"measurement": "Time of Sleep (The duration of reflex action, min)", "setting": "[1]; alcohol-induced coma, 75 mg/kg tail vein injection", "value": "63.5 ± 9.8", "unit": "min"}, {"measurement": "Time of Sleep (The duration of reflex action, min)", "setting": "[1]; [7]", "value": "48.5 ± 9.1", "unit": "min"}, {"measurement": "wake-promoting effect on alcoholism-induced coma (in words)", "setting": "[1]", "value": "obvious"}, {"measurement": "solubility (in words)", "setting": "[2]", "value": "significantly better than the racemate"}, {"measurement": "wake-promoting effect on traumatic coma (in words)", "setting": "[3]; 125 mg/kg, after 1 hour", "value": "significant improvement in awareness"}, {"measurement": "Remark: animals that survived", "setting": "[3]; traumatic brain coma, 125 mg/kg, 125 mg/kg", "value": "All"}, {"measurement": "Remark: animals that survived", "setting": "[3]; traumatic brain coma, 125 mg/kg, listed as left oxiracetam, 125 mg/kg", "value": "no occurrence of an animal died"}, {"measurement": "coma level score, post-traumatic observation point 1 h", "setting": "[3]; [8]", "value": "5.1 ± 0.88"}, {"measurement": "coma level score, post-traumatic observation point 2 h", "setting": "[3]; [8]", "value": "3.8 ± 0.78"}, {"measurement": "coma level score, post-traumatic observation point 4 h", "setting": "[3]; [8]", "value": "3.0 ± 0.82"}, {"measurement": "coma level score, post-traumatic observation point 8 h", "setting": "[3]; [8]", "value": "2.0 ± 0.67"}, {"measurement": "coma level score, post-traumatic observation point 1 h", "setting": "[3]; traumatic brain coma, 125 mg/kg, levels 1-6 (5 and 6 = coma), listed as left oxiracetam", "value": 5.1}, {"measurement": "absolute bioavailability estimated through AUC0−∞", "setting": "[4]", "value": "65.76±9.12", "unit": "%"}, {"measurement": "AUC(0-inf)", "setting": "[4]; iv", "value": "243 ± 37.8", "unit": "µg·h/mL"}, {"measurement": "awaking effect on ketamine-induced coma (in words)", "setting": "[5]; dose range 30-180 mg/kg", "value": "significant awaking effect"}, {"measurement": "Time of Sleep (The duration of reflex action, min)", "setting": "[5]; 30 mg/kg", "value": "19.6 ± 5.6", "unit": "min"}, {"measurement": "Time of Sleep (The duration of reflex action, min)", "setting": "[5]; 75 mg/kg", "value": "15.2 ± 4.9", "unit": "min"}, {"measurement": "Time of Sleep (The duration of reflex action, min)", "setting": "[5]; 180 mg/kg", "value": "13.8 ± 3.8", "unit": "min"}]}, {"compound": "NC(=O)CN1CC(O)CC1=O", "note": "(racemic) [oxiracetam]", "values": [{"measurement": "Time of Sleep (The duration of reflex action, min)", "setting": "[1]; alcohol-induced coma, 60 mg/kg tail vein injection", "value": "96.8 ± 12.7", "unit": "min"}, {"measurement": "Time of Sleep (The duration of reflex action, min)", "setting": "[1]; alcohol-induced coma, 150 mg/kg tail vein injection", "value": "86.1 ± 9.4", "unit": "min"}, {"measurement": "Time of Sleep (The duration of reflex action, min)", "setting": "[1]; alcohol-induced coma, 360 mg/kg tail vein injection", "value": "65.1 ± 10.2", "unit": "min"}, {"measurement": "wake-promoting effect on alcoholism-induced coma (in words)", "setting": "[1]", "value": "certain awaking effect"}, {"measurement": "concentration at 1 h", "setting": "[4]; [9]", "value": 30800, "unit": "ng/mL"}, {"measurement": "concentration at 1.5 h", "setting": "[4]; [9]", "value": 38800, "unit": "ng/mL"}, {"measurement": "concentration at 2 h", "setting": "[4]; [9]", "value": 35300, "unit": "ng/mL"}, {"measurement": "concentration at 4 h", "setting": "[4]; [9]", "value": 13000, "unit": "ng/mL"}, {"measurement": "concentration at 6 h", "setting": "[4]; [9]", "value": 9350, "unit": "ng/mL"}, {"measurement": "awaking effect on ketamine-induced coma (in words)", "setting": "[5]; dose range 150-360 mg/kg", "value": "also had such effect"}, {"measurement": "Time of Sleep (The duration of reflex action, min)", "setting": "[5]; 60 mg/kg", "value": "21.3 ± 6.7", "unit": "min"}, {"measurement": "Time of Sleep (The duration of reflex action, min)", "setting": "[5]; 150 mg/kg", "value": "15.3 ± 6.4", "unit": "min"}, {"measurement": "Time of Sleep (The duration of reflex action, min)", "setting": "[5]; 360 mg/kg", "value": "14.2 ± 6.2", "unit": "min"}]}, {"compound": "C=CCN1CC[C@]23c4c5ccc(O)c4O[C@H]2C(=O)CC[C@@]3(O)[C@H]1C5", "note": "[Naloxone]", "values": [{"measurement": "Time of Sleep (The duration of reflex action, min)", "setting": "[1]; alcohol-induced coma, 1.5 mg/kg tail vein injection", "value": "60.5 ± 7.8", "unit": "min"}, {"measurement": "wake-promoting effect on traumatic coma (in words)", "setting": "[3]; 1 mg/kg, positive drug", "value": "good wake-promoting effect"}, {"measurement": "Remark: animals that survived", "setting": "[3]; traumatic brain coma, 1 mg/kg", "value": "All"}, {"measurement": "coma level score, post-traumatic observation point 1 h", "setting": "[3]; [10]", "value": "4.4 ± 0.96"}, {"measurement": "coma level score, post-traumatic observation point 2 h", "setting": "[3]; [10]", "value": "3.6 ± 0.84"}, {"measurement": "coma level score, post-traumatic observation point 8 h", "setting": "[3]; [10]", "value": "1.9 ± 0.88"}, {"measurement": "Time of Sleep (The duration of reflex action, min)", "setting": "[5]; 1.5 mg/kg", "value": "13.5 ± 4.2", "unit": "min"}, {"measurement": "awaking effect on ketamine-induced coma (in words)", "setting": "[5]; positive reference drug 1.5 mg/kg", "value": "significant effect"}]}, {"compound": "NC(=O)CN1C[C@H](O)CC1=O", "note": "[D-Oxiracetam]", "values": [{"measurement": "Time of Sleep (The duration of reflex action, min)", "setting": "[1]; [6]", "value": "105.3 ± 15.8", "unit": "min"}, {"measurement": "Time of Sleep (The duration of reflex action, min)", "setting": "[1]; [7]", "value": "98.8 ± 11.6", "unit": "min"}, {"measurement": "wake-promoting effect on alcoholism-induced coma (in words)", "setting": "[1]", "value": "basically had no effect"}, {"measurement": "awaking effect on ketamine-induced coma (in words)", "setting": "[5]; dose range 30-180 mg/kg", "value": "no effect"}, {"measurement": "Time of Sleep (The duration of reflex action, min)", "setting": "[5]; 30 mg/kg", "value": "25.6 ± 8.9", "unit": "min"}, {"measurement": "Time of Sleep (The duration of reflex action, min)", "setting": "[5]; 180 mg/kg", "value": "22.8 ± 6.5", "unit": "min"}]}]}
